Source: patent publication EP2951180B1, “2,6,7,8 SUBSTITUTED PURINES AS HDM2 INHIBITORS” (Merck Sharp & Dohme Corp., priority 2013, dated 2014)

target: T1, HDM2 (Homo sapiens, UniProt Q00987); experiment: HDM2 FRET assay (inhibition of binding of FITC labeled p53-pocket peptide to HDM2); conditions: Table 6; read-out: FRET IC50
T1 construct: Thioredoxin (N); made in house; host or cells: E. coli strain BL21(DE3)Rosetta
In short: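 TR-FRET with 0.5 nM His-tagged recombinant HDM2, 3 nM FITC-labelled p53 peptide and 0.25 nM Tb-anti-His antibody in PBS, 0.01% BSA, 0.01% Tween-20, 0.1% DMSO. IC50 from em520/em495 ratio over 10-point dilutions, 4-parameter logistic fit.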

T1 sequence (Q00987 17-125): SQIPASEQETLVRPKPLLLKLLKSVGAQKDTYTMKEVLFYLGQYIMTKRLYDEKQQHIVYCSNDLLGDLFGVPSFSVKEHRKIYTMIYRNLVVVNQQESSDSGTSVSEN

Row | Structure (SMILES) | IC50
1 | Cc1cccc(-c2nc3nc(C(=O)O)nc(N[C@H](C)C4CCC4)c3n2Cc2ccc(Cl)cc2)c1 [Example 6.2, 7-(4-chlorobenzyl)-6-{[(1R)-1-cyclobutylethyl]amino}-8-(3-methylphenyl)-7H-purine-2-carboxylic acid] | 13.9 nM
2 | Cc1cccc(-c2nc3nc(C(=O)O)nc(N[C@H](C)C4CCCC4)c3n2Cc2ccc(Cl)cc2)c1 [Example 6.3, 7-(4-chlorobenzyl)-6-{[(1R)-1-cyclopentylethyl]amino}-8-(3-methylphenyl)-7H-purine-2-carboxylic acid] | 31.4 nM
3 | Cc1cccc(-c2nc3nc(C(=O)O)nc(N[C@H](C)C4CCCCC4)c3n2Cc2ccc(Cl)cc2)c1 [Example 6.4, 7-(4-chlorobenzyl)-6-{[(1R)-1-cyclohexylethyl]amino}-8-(3-methylphenyl)-7H-purine-2-carboxylic acid] | 1030 nM
4 | Cc1cccc(-c2nc3nc(C(=O)O)nc(N[C@H](C)C4CC4)c3n2Cc2ccc(Br)cc2)c1 [Example 6.5, 7-(4-bromobenzyl)-6-{[(1R)-1-cyclopropylethyl]amino}-8-(3-methylphenyl)-7H-purine-2-carboxylic acid] | 234 nM
5 | Cc1cccc(-c2nc3nc(C(=O)O)nc(NC(C)(C)C4CC4)c3n2Cc2ccc(Cl)cc2)c1 [Example 6.6, 7-(4-chlorobenzyl)-6-[(1-cyclopropyl-1-methylethyl)amino]-8-(3-methylphenyl)-7H-purine-2-carboxylic acid] | 1650 nM
6 | Cc1cccc(-c2nc3nc(C(=O)O)nc(N[C@H](C)C4CCC4)c3n2Cc2ccc(Br)cc2)c1 [Example 6.7, 7-(4-bromobenzyl)-6-{[(1R)-1-cyclobutylethyl]amino}-8-(3-methylphenyl)-7H-purine-2-carboxylic acid] | 75.7 nM
7 | Cc1cccc(-c2nc3nc(C(=O)O)nc(NC4CCCCC4C)c3n2Cc2ccc(C(F)(F)F)cc2)c1 (centres unmarked) [Example 6.8, 6-[(2-methylcyclohexyl)amino]-8-(3-methylphenyl)-7-[4-(trifluoromethyl)benzyl]-7H-purine-2-carboxylic acid] | 228 nM
8 | Cc1cccc(-c2nc3nc(C(=O)O)nc(NC4CCCCC4C)c3n2Cc2ccc(Br)cc2)c1 (centres unmarked) [Example 6.9, 7-(4-bromobenzyl)-6-[(2-methylcyclohexyl)amino]-8-(3-methylphenyl)-7H-purine-2-carboxylic acid] | 22.3 nM
9 | Cc1cccc(-c2nc3nc(C(=O)O)nc(NC4CCCCC4C)c3n2Cc2ccc(Br)cc2)c1 (centres unmarked) [Example 6.10, 7-(4-bromobenzyl)-6-[(2-methylcyclohexyl)amino]-8-(3-methylphenyl)-7H-purine-2-carboxylic acid] | 1040 nM
10 | Cc1cccc(-c2nc3nc(C(=O)O)nc(N(C)C(C)C4CC4)c3n2Cc2ccc(Cl)cc2)c1 (centres unmarked) [Example 6.11, 7-(4-chlorobenzyl)-6-[(1-cyclopropylethyl)(methyl)amino]-8-(3-methylphenyl)-7H-purine-2-carboxylic acid] | 1420 nM
11 | O=C(O)c1nc(NCC2CC2)c2c(n1)nc(-c1cccc(Cl)c1)n2Cc1ccc(Cl)cc1 [Example 6.12, 7-(4-chlorobenzyl)-8-(3-chlorophenyl)-6-[(cyclopropylmethyl)amino]-7H-purine-2-carboxylic acid] | 4100 nM
12 | C[C@@H](Nc1nc(C(=O)O)nc2nc(-c3ccc4sccc4c3)n(Cc3ccc(C(F)(F)F)cc3)c12)C1CC1 [Example 6.13, 8-(1-benzothiophen-5-yl)-6-{[(1R)-1-cyclopropylethyl]amino}-7-[4-(trifluoromethyl)benzyl]-7H-purine-2-carboxylic acid] | 16.3 nM
13 | C[C@@H](Nc1nc(C(=O)O)nc2nc(-c3ccc4sccc4c3)n(Cc3ccc(C(F)(F)F)cc3)c12)C1CCC1 [Example 6.14, 8-(1-benzothiophen-5-yl)-6-{[(1R)-1-cyclobutylethyl]amino}-7-[4-(trifluoromethyl)benzyl]-7H-purine-2-carboxylic acid] | 35.3 nM
14 | Cc1cccc(-c2nc3nc(C(=O)O)nc(N[C@H](C)C4CC4)c3n2Cc2ccc(F)c(Cl)c2)c1 [Example 6.15, 7-(3-chloro-4-fluorobenzyl)-6-{[(1R)-1-cyclopropylethyl]amino}-8-(3-methylphenyl)-7H-purine-2-carboxylic acid] | 371 nM
15 | Cc1cccc(-c2nc3nc(C(=O)O)nc(N[C@H](C)C4CC4)c3n2Cc2ccc(Cl)c(Cl)c2)c1 [Example 6.16, 6-{[(1R)-1-cyclopropylethyl]amino}-7-(3,4-dichlorobenzyl)-8-(3-methylphenyl)-7H-purine-2-carboxylic acid] | 462 nM
16 | Cc1cccc(-c2nc3nc(C(=O)O)nc(N[C@H](C)C4CC4)c3n2Cc2ccc(Cl)c(F)c2)c1 [Example 6.17, 7-(4-chloro-3-fluorobenzyl)-6-{[(1R)-1-cyclopropylethyl]amino}-8-(3-methylphenyl)-7H-purine-2-carboxylic acid] | 25.8 nM
17 | Cc1cccc(-c2nc3ncnc(NC(CC(=O)O)C4CC4)c3n2Cc2ccc(C(F)(F)F)cc2)c1 (centres unmarked) [Example 6.18, 3-cyclopropyl-3-({8-(3-methylphenyl)-7-[4-(trifluoromethyl)benzyl]-7H-purin-6-yl}amino)propanoic acid] | 5190 nM
18 | Cc1cccc(-c2nc3nc(C(=O)O)nc(NC4CCC(C)CC4)c3n2Cc2ccc(C(F)(F)F)cc2)c1 (centres unmarked) [Example 6.19, 6-[(4-methylcyclohexyl)amino]-8-(3-methylphenyl)-7-[4-(trifluoromethyl)benzyl]-7H-purine-2-carboxylic acid] | 869 nM
19 | Cc1cccc(-c2nc3nc(C(=O)O)nc(NC4CCCC(C)C4)c3n2Cc2ccc(C(F)(F)F)cc2)c1 (centres unmarked) [Example 6.20, 6-[(3-methylcyclohexyl)amino]-8-(3-methylphenyl)-7-[4-(trifluoromethyl)benzyl]-7H-purine-2-carboxylic acid] | 567 nM
20 | Cc1cccc(-c2nc3nc(C(=O)O)nc(NC4CCCC4C)c3n2Cc2ccc(C(F)(F)F)cc2)c1 (centres unmarked) [Example 6.21, 6-[(2-methylcyclopentyl)amino]-8-(3-methylphenyl)-7-[4-(trifluoromethyl)benzyl]-7H-purine-2-carboxylic acid] | 422 nM

same assay, conditions: Table 11; read-out: FRET IC50

Row | Structure (SMILES) | IC50
21 | C[C@@H](Nc1nc(-c2noc(=O)[nH]2)nc2nc(N(C)[C@@H]3CCCC[C@@H]3O)n(C[C@H]3CC[C@H](C)CC3)c12)C1CCC1 (stereo in doubt) [Example 11.134, 3-(6-{[(1R)-1-cyclobutylethyl]amino}-8-{[(1R,2S)-2-hydroxycyclohexyl] (methyl)amino}-7-[(trans-4-methylcyclohexyl)methyl]-7H-purin-2-yl)-1,2,4-oxadiazol-5(4H)-one] | 9.46 nM
22 | C[C@@H]1OCCN(c2nc3nc(-c4n[nH]c(=O)o4)nc(N[C@H](C)C4CCC4)c3n2C[C@H]2CC[C@H](C)CC2)[C@H]1C (stereo in doubt) [Example 11.167, 5-(6-{[(1R)-1-cyclobutylethyl]amino}-8-[(trans)-2,3-dimethylmorpholin-4-yl]-7-[(trans-4-methylcyclohexyl)methyl]-7H-purin-2-yl)-1,3,4-oxadiazol-2(3H)-one] | 2.16 nM

same assay, conditions: read-out: inh. at 1000 nM (FRET)

Row | Structure (SMILES) | inhibition at 1 µM
23 | CCC1CCN(c2nc(C(=O)O)nc3nc(-c4cccc(C)c4)n(Cc4ccc(C(F)(F)F)cc4)c23)C1 (centres unmarked) [Example 6.1, 6-(3-ethylpyrrolidin-1-yl)-8-(3-methylphenyl)-7-[4-(trifluoromethyl)benzyl]-7H-purine-2-carboxylic acid] | 41%
